Measurements taken from patent US20240391965A1, “STAPLED ANTIMICROBIAL PEPTIDES (STAMPS) AND USES THEREOF” (Lytica Therapeutics, Inc., priority 2021, published 2024).
In brackets after ≈: the same amount, converted by molar mass. Starred links: 1 amine or outer side, 2 acyl side, 3 side chain; linkers in the order of their positions; H or OH if unused. Positions of bridges follow the written chain, without caps; N, C: chain ends. Residues, ends and D or L forms follow the SMILES beside them. 2,2'Bipyridine(5,5'-diCH2) = c1cc(-c2ccc(C[*:2])cn2)ncc1C[*:1]; Naphthalene(2,6-diCH2) = c1cc2cc(C[*:2])ccc2cc1C[*:1]; mXylylene = c1cc(C[*:1])cc(C[*:2])c1; pXylylene = c1cc(C[*:2])ccc1C[*:1]; X1 = C(=CC[*:2])C[*:1]

Key:
[1] = 90 minute cytotoxicity assay (LDH release), renal toxicity; assay type: cell-based; settings: 90 minutes of incubation, LDH release; read-out: Inhibitory Concentration at 50% Cytotoxicity (IC50) Human Renal Proximal Tubule Epithelial Cells (RPTEC)
Summary of the method: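 RPTEC plated overnight, given fresh medium, then exposed to serial peptide dilutions or vehicle for 90 min at 37° C. Medium LDH measured by 10 min reagent incubation and absorbance at 490 nm.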

[2] = 48 hours cytotoxicity assay (CellTiter-Glo), liver toxicity; assay type: cell-based, human; settings: 48 hours of incubation, CellTiter-Glo; read-out: Inhibitory Concentration at 50% Cytotoxicity (IC50) Human Liver Cells (HepG2)
Summary of the method: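 HepG2 cells in EMEM with 10% FBS, allowed to attach 4 h, then exposed to serially diluted StAMPs or vehicle for 48 h at 37 °C. Viability read by CellTiter-Glo luminescence.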

[3] = test system: Staphylococcus aureus (S. aureus); assay type: cell-based; settings: microbroth dilution, 20-24 hours at 37° C.
Summary of the method: (§1)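 Minimum inhibitory concentrations come from a CLSI-adapted broth microdilution. Cells grew in Mueller-Hinton or cation-adjusted Mueller-Hinton broth, were exposed to peptide dilutions at 5×10^5 CFU/ml, and were read by eye after 20-24 h at 37 °C.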

[4] = test system: Pseudomonas aeruginosa (P. aeruginosa); assay type: cell-based; settings: microbroth dilution, 20-24 hours at 37° C.
Summary of the method: as §1

[5] = test system: Acinetobacter baumannii (A. baumannii); assay type: cell-based; settings: microbroth dilution, 20-24 hours at 37° C.
Summary of the method: as §1

[6] = test system: Escherichia coli (E. coli); assay type: cell-based; settings: microbroth dilution, 20-24 hours at 37° C.
Summary of the method: as §1

[7] = test system: Klebsiella pneumoniae (K. pneumoniae); assay type: cell-based; settings: microbroth dilution, 20-24 hours at 37° C.
Summary of the method: as §1

Row | SMILES | IC50 [1] [µg/mL] | IC50 [2] [µg/mL] | Minimum Inhibitory Concentration (MIC) S. aureus [3] [µg/mL] | Minimum Inhibitory Concentration (MIC) P. aeruginosa [4] [µg/mL] | Minimum Inhibitory Concentration (MIC) A. baumannii [5] [µg/mL] | Minimum Inhibitory Concentration (MIC) E. coli [6] [µg/mL] | Minimum Inhibitory Concentration (MIC) K. pneumoniae [7] [µg/mL]
1 | CC[C@H](C)[C@H](NC(=O)CN)C(=O)N[C@@H](Cc1ccccc1)C(=O)N[C@@H](CO)C(=O)N[C@@H](CCCCN)C(=O)N[C@@H](CC(C)C)C(=O)N[C@@H](C)C(=O)NCC(=O)N[C@@H](CCCCN)C(=O)N[C@@H](CCCCN)C(=O)N[C@H](C(=O)N[C@H]1CSCC=CCSC[C@@H](C(=O)N[C@@H](CO)C(=O)NCC(=O)N[C@@H](CC(C)C)C(=O)N[C@@H](CCCCN)C(=O)NCC(N)=O)NC(=O)[C@H](CC(C)C)NC(=O)[C@H](CC(C)C)NC(=O)[C@H](CC(N)=O)NC1=O)[C@@H](C)CC [compound 22] (H-GIFSKLAGKKICNLLCSGLKG-NH2; linker 12-16 via X1) | > 200 | > 200 | >64 | 64 | 64 | 32 | >64
2 | CC[C@H](C)[C@H](NC(=O)CN)C(=O)N[C@@H](Cc1ccccc1)C(=O)N[C@@H](CO)C(=O)N[C@@H](CCCCN)C(=O)N[C@@H](CC(C)C)C(=O)N[C@@H](C)C(=O)NCC(=O)N[C@@H](CCCCN)C(=O)N[C@@H](CCCCN)C(=O)N[C@H](C(=O)N[C@@H](CCCCN)C(=O)N[C@@H](CC(N)=O)C(=O)N[C@@H](CC(C)C)C(=O)N[C@H]1CSCc2cccc(c2)CSC[C@@H](C(=O)N[C@@H](CCCCN)C(=O)NCC(N)=O)NC(=O)CNC(=O)[C@H](CO)NC(=O)[C@H]([C@@H](C)CC)NC1=O)[C@@H](C)CC [compound 29] (H-GIFSKLAGKKIKNLCISGCKG-NH2; linker 15-19 via mXylylene) | > 200 | ~200 (≈ 88.2 µM) | >64 | 64 | 16 | 64 | >64
3 | CC[C@H](C)[C@H](NC(=O)CN)C(=O)N[C@@H](Cc1ccccc1)C(=O)N[C@@H](CO)C(=O)N[C@@H](CCCCN)C(=O)N[C@@H](CC(C)C)C(=O)N[C@@H](C)C(=O)NCC(=O)N[C@@H](CCCCN)C(=O)N[C@@H](CCCCN)C(=O)N[C@H](C(=O)N[C@@H](CCCCN)C(=O)N[C@@H](CC(N)=O)C(=O)N[C@@H](CC(C)C)C(=O)N[C@H]1CSCc2ccc(cc2)CSC[C@@H](C(=O)N[C@@H](CCCCN)C(=O)NCC(N)=O)NC(=O)CNC(=O)[C@H](CO)NC(=O)[C@H]([C@@H](C)CC)NC1=O)[C@@H](C)CC [compound 30] (H-GIFSKLAGKKIKNLCISGCKG-NH2; linker 15-19 via pXylylene) | > 200 | > 200 | >64 | 64 | 16 | 64 | >64
4 | CC[C@H](C)[C@H](NC(=O)CN)C(=O)N[C@@H](Cc1ccccc1)C(=O)N[C@@H](CO)C(=O)N[C@@H](CCCCN)C(=O)N[C@@H](CC(C)C)C(=O)N[C@@H](C)C(=O)NCC(=O)N[C@@H](CCCCN)C(=O)N[C@@H](CCCCN)C(=O)N[C@H](C(=O)N[C@@H](CCCCN)C(=O)N[C@@H](CC(N)=O)C(=O)N[C@@H](CC(C)C)C(=O)N[C@H]1CSCC=CCSC[C@@H](C(=O)N[C@@H](CCCCN)C(=O)NCC(N)=O)NC(=O)CNC(=O)[C@H](CO)NC(=O)[C@H]([C@@H](C)CC)NC1=O)[C@@H](C)CC [compound 31] (H-GIFSKLAGKKIKNLCISGCKG-NH2; linker 15-19 via X1) | > 200 | > 200 | >64 | >64 | >64 | >64 | >64
5 | CC[C@H](C)[C@H](NC(=O)CN)C(=O)N[C@@H](Cc1ccccc1)C(=O)N[C@@H](CO)C(=O)N[C@@H](CCCCN)C(=O)N[C@@H](CC(C)C)C(=O)N[C@@H](C)C(=O)NCC(=O)N[C@@H](CCCCN)C(=O)N[C@@H](CCCCN)C(=O)N[C@H](C(=O)N[C@@H](CCCCN)C(=O)N[C@@H](CC(N)=O)C(=O)N[C@@H](CC(C)C)C(=O)N[C@@H](CC(C)C)C(=O)N[C@H]1CSCc2cccc(c2)CSC[C@@H](C(=O)NCC(N)=O)NC(=O)[C@H](CC(C)C)NC(=O)CNC(=O)[C@H](CO)NC1=O)[C@@H](C)CC [compound 32] (H-GIFSKLAGKKIKNLLCSGLCG-NH2; linker 16-20 via mXylylene) | 30 (≈ 13.3 µM) | 41 (≈ 18.2 µM) | >64 | 16 | 2 | 2 | 8
6 | CC[C@H](C)[C@H](NC(=O)CN)C(=O)N[C@@H](Cc1ccccc1)C(=O)N[C@@H](CO)C(=O)N[C@@H](CCCCN)C(=O)N[C@@H](CC(C)C)C(=O)N[C@@H](C)C(=O)NCC(=O)N[C@@H](CCCCN)C(=O)N[C@@H](CCCCN)C(=O)N[C@H](C(=O)N[C@@H](CCCCN)C(=O)N[C@@H](CC(N)=O)C(=O)N[C@@H](CC(C)C)C(=O)N[C@@H](CC(C)C)C(=O)N[C@H]1CSCc2ccc(cc2)CSC[C@@H](C(=O)NCC(N)=O)NC(=O)[C@H](CC(C)C)NC(=O)CNC(=O)[C@H](CO)NC1=O)[C@@H](C)CC [compound 33] (H-GIFSKLAGKKIKNLLCSGLCG-NH2; linker 16-20 via pXylylene) | 59 (≈ 26.2 µM) | 57 (≈ 25.3 µM) | 64 | 16 | 4 | 4 | 8
7 | CC[C@H](C)[C@H](NC(=O)[C@H](CC(C)C)NC(=O)[C@H](CC(C)C)NC(=O)[C@H](CC(N)=O)NC(=O)[C@H](CCCCN)NC(=O)[C@@H](NC(=O)[C@H](CCCCN)NC(=O)[C@H](CCCCN)NC(=O)[C@@H]1CSCc2ccc(nc2)-c2ccc(cn2)CSC[C@H](N)C(=O)N[C@@H]([C@@H](C)CC)C(=O)N[C@@H](Cc2ccccc2)C(=O)N[C@@H](CO)C(=O)N[C@@H](CCCCN)C(=O)N[C@@H](CC(C)C)C(=O)N[C@@H](C)C(=O)N1)[C@@H](C)CC)C(=O)N[C@@H](CO)C(=O)NCC(=O)N[C@@H](CC(C)C)C(=O)N[C@@H](CCCCN)C(=O)NCC(N)=O [compound 49] (H-CIFSKLACKKIKNLLISGLKG-NH2; linker 1-8 via 2,2'Bipyridine(5,5'-diCH2); N-terminus assumed) | 60 (≈ 24.4 µM) | 22 (≈ 8.95 µM) | >64 | >64 | 32 | 32 | >64
8 | CC[C@H](C)[C@H](NC(=O)[C@H](CC(C)C)NC(=O)[C@H](CC(C)C)NC(=O)[C@H](CC(N)=O)NC(=O)[C@H](CCCCN)NC(=O)[C@@H](NC(=O)[C@H](CCCCN)NC(=O)[C@H](CCCCN)NC(=O)[C@@H]1CSCc2ccc3cc(ccc3c2)CSC[C@H](N)C(=O)N[C@@H]([C@@H](C)CC)C(=O)N[C@@H](Cc2ccccc2)C(=O)N[C@@H](CO)C(=O)N[C@@H](CCCCN)C(=O)N[C@@H](CC(C)C)C(=O)N[C@@H](C)C(=O)N1)[C@@H](C)CC)C(=O)N[C@@H](CO)C(=O)NCC(=O)N[C@@H](CC(C)C)C(=O)N[C@@H](CCCCN)C(=O)NCC(N)=O [compound 50] (H-CIFSKLACKKIKNLLISGLKG-NH2; linker 1-8 via Naphthalene(2,6-diCH2); N-terminus assumed) | 17 (≈ 7 µM) | 103 (≈ 42.4 µM) | 64 | >64 | 8 | 16 | 32
